Laboratory results taken from patent US8575197B2, “Pyrolinone derivative and pharmaceutical composition comprising the same” (Shionogi & Co., Ltd., priority 2008, dated 2013).

target: human P2X3 receptor (Homo sapiens (Human), UniProt P56373); experiment: P2X3 receptor inhibition, ATP-evoked Fluo-3 calcium fluorescence (FDSS 3000); assay type: cell-based; settings: C6BU-1 cell transfected with human P2X3 receptor gene; ATP-evoked Fluo-3 fluorescence
Method in brief: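 C6BU-1 cells stably transfected with human P2X3, loaded with 4 μM Fluo-3-AM for 1 h at 37 °C in HEPES buffer pH 7.5 with probenecid. Compound added 5 min before 40 nM ATP solution; fluorescence followed 3 min. IC50 from ratio of peak post-ATP to baseline fluorescence.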

Chain of human P2X3 receptor (P56373 whole entry): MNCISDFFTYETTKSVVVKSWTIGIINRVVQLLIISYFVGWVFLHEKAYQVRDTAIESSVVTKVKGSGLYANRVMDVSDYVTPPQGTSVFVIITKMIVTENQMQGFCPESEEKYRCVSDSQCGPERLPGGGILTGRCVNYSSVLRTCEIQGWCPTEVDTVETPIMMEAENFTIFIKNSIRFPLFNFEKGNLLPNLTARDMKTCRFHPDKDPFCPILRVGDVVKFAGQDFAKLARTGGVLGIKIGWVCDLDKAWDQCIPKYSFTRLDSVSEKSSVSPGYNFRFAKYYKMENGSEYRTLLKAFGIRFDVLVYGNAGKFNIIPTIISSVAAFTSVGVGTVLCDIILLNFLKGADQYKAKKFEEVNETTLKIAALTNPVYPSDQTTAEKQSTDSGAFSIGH

SMILES | IC50
COCc1ccccc1C1C(C(=O)CC(C)C)=C(O)C(=O)N1c1ccc(SC)cc1 (stereo not shown) [Compound I-437] | 0.111 µM
COCCOc1ccccc1C1C(C(=O)CC(C)C)=C(O)C(=O)N1c1ccc(-c2ccsc2)cc1 (stereo not shown) [Compound I-251] | 0.017 µM
COCc1ccccc1C1C(C(=O)CC(C)C)=C(O)C(=O)N1c1ccc(-c2coc(C)n2)cc1 (stereo not shown) [Compound I-392] | 0.946 µM
Cc1ccc(-c2ccc(N3C(=O)C(O)=C(C(=O)CC(C)C)C3c3cccnc3C(=O)NCCN(C)C)cc2)s1 (stereo not shown) [Compound I-583] | 0.01 µM
CSc1ccc(N2C(=O)C(O)=C(C(=O)C(C)(C)C)C2c2cccnc2OCCO)cc1 (stereo not shown) [Compound I-171] | 0.61 µM
CC(C)C(=O)C1=C(O)C(=O)N(c2ccc(-c3ccoc3)cc2)C1c1ccccc1OCCO (stereo not shown) [Compound I-190] | 0.04 µM
COCc1ccccc1C1C(C(=O)C(C)C)=C(O)C(=O)N1c1ccc(-c2ccccc2)s1 (stereo not shown) [Compound I-283] | 0.144 µM
COCCOc1ccccc1C1C(C(=O)C(C)C)=C(O)C(=O)N1c1ccc(-c2ccon2)cc1 (stereo not shown) [Compound I-298] | 0.269 µM
Cc1ccc(-c2ccc(N3C(=O)C(O)=C(C(=O)C(C)C)C3c3ccccc3C(=O)N(C)CCO)cc2)o1 (stereo not shown) [Compound I-585] | 0.157 µM
COCCOc1cccc(C2C(C(=O)C(C)C)=C(O)C(=O)N2c2ccc(-c3ccsc3)cc2)c1 (stereo not shown) [Compound I-286] | 0.669 µM
CC(C)C(=O)C1=C(O)C(=O)N(c2ccc(-c3ccsc3)cc2)C1c1ccccc1N1CCOCC1 (stereo not shown) [Compound I-443] | 0.006 µM
CSc1ccc(N2C(=O)C(O)=C(C(=O)C(C)C)C2c2ccccc2OC(C)C)cc1 (stereo not shown) [Compound I-474] | 0.071 µM
COc1ccccc1C1C(C(=O)C(C)(C)C)=C(N)C(=O)N1c1ccc(-c2ccon2)cc1 (stereo not shown) [Compound I-102] | 0.134 µM
CC(C)C(=O)C1=C(O)C(=O)N(c2ccc(-c3ccsc3)cc2)C1c1cccnc1OCC(N)=O (stereo not shown) [Compound I-200] | 0.014 µM
COCCOc1ncccc1C1C(C(=O)C2CCCC2)=C(O)C(=O)N1c1ccc(-c2ccsc2)cc1 (stereo not shown) [Compound I-517] | 0.026 µM
CC(C)(C)C(=O)C1=C(O)C(=O)N(c2ccc(-c3ccoc3)cc2)C1c1cccnc1OCCO (stereo not shown) [Compound I-165] | 0.095 µM
COCCOc1ncccc1C1C(C(=O)C(C)(C)C)=C(O)C(=O)N1c1ccc(-c2ccsc2)cc1 (stereo not shown) [Compound I-138] | 0.016 µM
COCCOc1ccccc1C1C(S(=O)(=O)C(C)C)=C(O)C(=O)N1c1ccc(-c2ccsc2)cc1 (stereo not shown) [Compound I-563] | 0.042 µM
COc1ccc(C(=O)C2=C(O)C(=O)N(c3nc4ccc(OC)cc4s3)C2c2ccccc2OCCO)cc1 (stereo not shown) [Compound I-126] | 0.015 µM
CC(C)CC(=O)C1=C(O)C(=O)N(c2ccc(-c3ccsc3)cc2)C1c1ccccc1OCCCO (stereo not shown) [Compound I-366] | 0.013 µM
CC(C)(C)C(=O)C1=C(O)C(=O)N(c2ccc(-c3nccs3)cc2)C1c1ccccc1OCCO (stereo not shown) [Compound I-082] | 0.65 µM
Cc1nc(-c2ccc(N3C(=O)C(O)=C(C(=O)C(C)C)C3c3ccccc3CCC(N)=O)cc2)no1 (stereo not shown) [Compound I-592] | 0.827 µM
COCCOc1ccccc1C1C(C(=O)C(C)C)=C(O)C(=O)N1c1ccc(-c2cscn2)cc1 (stereo not shown) [Compound I-417] | 0.181 µM
COCc1ccccc1[C@@H]1C(C(=O)C(C)C)=C(O)C(=O)N1c1ccc(-c2cccs2)cc1 [Compound I-394] | 0.011 µM
Cc1ncccc1C1C(C(=O)C(C)(C)C)=C(O)C(=O)N1c1ccc(-c2ccco2)cc1 (stereo not shown) [Compound I-142] | 0.315 µM
Cc1ccc(-c2ccc(N3C(=O)C(O)=C(C(=O)C(C)C)C3c3ccccc3N3CCOCC3)cc2)o1 (stereo not shown) [Compound I-486] | 0.004 µM
COCCOc1ncccc1C1C(C(=O)C(C)C)=C(O)C(=O)N1c1ccc(-c2ccoc2)cc1 (stereo not shown) [Compound I-234] | 0.056 µM

SMILES | IC50
CC(C)Oc1ccccc1C1C(C(=O)C(C)C)=C(O)C(=O)N1c1ccc(N2CCCC2)cc1 (stereo not shown) [Compound I-459] | 0.026 µM
COCc1ccccc1C1C(C(=O)C(C)C)=C(O)C(=O)N1c1ccc(-c2noc(C)n2)cc1 (stereo not shown) [Compound I-310] | 0.337 µM
COc1ncccc1C1C(C(=O)CC(C)C)=C(O)C(=O)N1c1ccc(-c2ccc(C)s2)cc1 (stereo not shown) [Compound I-336] | 0.351 µM
COCCOc1ncccc1C1C(C(=O)C(C)C)=C(O)C(=O)N1c1ccc(-c2csc(C)c2)cc1 (stereo not shown) [Compound I-268] | 0.032 µM
COc1cc(F)ccc1C1C(C(=O)C(C)(C)C)=C(O)C(=O)N1c1ccc(-c2ccon2)cc1 (stereo not shown) [Compound I-011] | 0.27 µM
COCc1ccccc1C1C(C(=O)c2cccnc2)=C(O)C(=O)N1c1ccc(-c2ccsc2)cc1 (stereo not shown) [Compound I-461] | 0.036 µM
COc1ccccc1C1C(C(=O)C(C)(C)C)=C(O)C(=O)N1c1ccc(-c2csc(C)c2)cc1 (stereo not shown) [Compound I-197] | 0.036 µM
COCOc1ccccc1C1C(C(=O)C(C)C)=C(O)C(=O)N1c1ccc(-c2ccc(C)s2)cc1 (stereo not shown) [Compound I-264] | 0.014 µM
COCc1ccccc1C1C(C(=O)CC(C)C)=C(O)C(=O)N1c1ccc(-c2ccsc2)cc1 (stereo not shown) [Compound I-252] | 0.01 µM
COCOc1ccccc1C1C(C(=O)C(C)C)=C(O)C(=O)N1c1ccc(-c2ccsc2)cc1 (stereo not shown) [Compound I-213] | 0.006 µM
COCCOc1ncccc1C1C(C(=O)C2CCCC2)=C(O)C(=O)N1c1ccc(-c2noc(C)n2)cc1 (stereo not shown) [Compound I-523] | 0.351 µM
COCc1ccccc1C1C(C(=O)CC(C)C)=C(O)C(=O)N1c1ccc(-c2ccc(C)o2)cc1 (stereo not shown) [Compound I-380] | 0.007 µM
CSc1ccc(N2C(=O)C(O)=C(C(=O)C(C)C)C2c2ccccc2OCC2CCOCC2)cc1 (stereo not shown) [Compound I-591] | 0.031 µM
COc1ccccc1C1C(C(=O)C(C)C)=C(O)C(=O)N1c1ccc(-c2ccco2)cc1 (stereo not shown) [Compound I-224] | 0.073 µM
COc1ccc(F)cc1C1C(C(=O)C(C)C)=C(O)C(=O)N1c1ccc(-c2ccsc2)cc1 (stereo not shown) [Compound I-452] | 0.026 µM
Cc1noc(-c2ccc(N3C(=O)C(O)=C(C(=O)C(C)C)C3c3ccccc3COC(C)C)cc2)n1 (stereo not shown) [Compound I-552] | 0.186 µM
CCOCOc1ccccc1C1C(C(=O)C(C)C)=C(O)C(=O)N1c1ccc(-c2ccon2)cc1 (stereo not shown) [Compound I-543] | 0.24 µM
CC(C)C(=O)C1=C(O)C(=O)N(c2ccc(-c3ccsc3)cc2)C1c1ccccc1OCC#N (stereo not shown) [Compound I-183] | 0.004 µM
COCOc1ccccc1C1C(C(=O)C(C)C)=C(O)C(=O)N1c1ccc(-c2ccco2)cc1 (stereo not shown) [Compound I-230] | 0.018 µM
COCCOc1ncccc1C1C(C(=O)CC(C)C)=C(O)C(=O)N1c1ccc(SC)cc1 (stereo not shown) [Compound I-550] | 0.254 µM
COc1ccccc1C1C(C(=O)C(C)C)=C(O)C(=O)N1c1ccc(-c2csnn2)cc1 (stereo not shown) [Compound I-531] | 0.286 µM
COCCOc1ncccc1[C@@H]1C(C(=O)C(C)C)=C(O)C(=O)N1c1ccc(-c2ccc(C)s2)cc1 [Compound I-472] | 0.007 µM
CCOCOc1ccccc1C1C(C(=O)C(C)C)=C(O)C(=O)N1c1ccc(-c2noc(C)n2)cc1 (stereo not shown) [Compound I-542] | 0.058 µM
CC(C)C(=O)C1=C(O)C(=O)N(c2ccc(-c3ccon3)cc2)C1c1cccnc1OCCO (stereo not shown) [Compound I-179] | 0.659 µM
CC(C)Oc1ccccc1C1C(C(=O)C2CCCC2)=C(O)C(=O)N1c1ccc(-c2ccon2)cc1 (stereo not shown) [Compound I-512] | 0.062 µM
COCCOc1ccccc1C1C(C(=O)C(C)C)=C(O)C(=O)N1c1ccc(-c2cc(C)on2)cc1 (stereo not shown) [Compound I-481] | 0.378 µM

The next lines start with the values.

IC50 | SMILES
0.021 µM | CC(C)Oc1ccccc1C1c2c(C(C)(C)C)n[nH]c2C(=O)N1c1ccc(-c2ccon2)cc1 (stereo not shown) [II-019]
0.213 µM | COC(=O)c1cc(N2C(=O)c3[nH]nc(C(C)C)c3C2c2ccccc2OC)ccc1-c1ccsc1 (stereo not shown) [II-241]
0.014 µM | COC(=O)COc1ccccc1C1c2c(C(C)(C)C)n[nH]c2C(=O)N1c1ccc(-c2ccon2)cc1 (stereo not shown) [II-028]
0.853 µM | COc1ccccc1C1c2c(C(C)C)n[nH]c2C(=O)N1c1ccc(-c2ccsc2)c(NC(C)=O)c1 (stereo not shown) [II-237]
0.274 µM | COCCOCc1ncccc1C1c2c(C(C)(C)C)n[nH]c2C(=O)N1c1ccc(-c2ccsc2)cc1 (stereo not shown) [II-277]
0.027 µM | COc1ccccc1C1c2c(C(C)(C)C)n[nH]c2C(=O)N1c1ccc(-c2ccc(C)s2)cc1 (stereo not shown) [II-275]
0.14 µM | COc1ccccc1C1c2c(C(C)(C)C)n[nH]c2C(=O)N1c1ccc(C(C)(C)C)cc1 (stereo not shown) [II-003]
0.153 µM | CC(C)(C)c1n[nH]c2c1C(c1ccccc1OCC(N)=O)N(c1ccc(-c3ccon3)cc1)C2=O (stereo not shown) [II-075]
0.015 µM | COCCOc1ccccc1C1c2c(C(C)(C)C)n[nH]c2C(=O)N1c1ccc(-c2noc(C)n2)cc1 (stereo not shown) [II-025]
0.024 µM | COc1ccccc1C1c2c(C3CC3)n[nH]c2C(=O)N1c1ccc(-c2ccsc2)cc1 (stereo not shown) [II-083]
0.033 µM | CC(C)c1n[nH]c2c1C(c1cccnc1OCC(=O)O)N(c1ccc(-c3ccsc3)cc1)C2=O (stereo not shown) [II-052]
0.008 µM | CC(C)(C)c1n[nH]c2c1C(c1ccccc1OCCO)N(c1ccc(-c3ccoc3)cc1)C2=O (stereo not shown) [II-124]
0.018 µM | CN(C)CCOc1ccccc1C1c2c(C(C)(C)C)n[nH]c2C(=O)N1c1ccc(-c2ccsc2)cc1 (stereo not shown) [II-031]
0.018 µM | CC(C)c1n[nH]c2c1C(c1ccccc1CN(C)C)N(c1ccc(-c3ccsc3)cc1)C2=O (stereo not shown) [II-084]
0.046 µM | COc1cc(F)ccc1C1c2c(C(C)(C)C)n[nH]c2C(=O)N1c1ccc(-c2ccon2)cc1 (stereo not shown) [II-059]
0.023 µM | COCCOc1ccccc1C1c2c(C(C)(C)C)n[nH]c2C(=O)N1c1ccc(SC)cc1 (stereo not shown) [II-026]
0.075 µM | COc1ccccc1C1c2c(C3(CO)CCCCC3)n[nH]c2C(=O)N1c1ccc(-c2ccon2)cc1 (stereo not shown) [II-064]
0.031 µM | COc1ncccc1C1c2c(C(C)(C)C)n[nH]c2C(=O)N1c1ccc(-c2cccs2)cc1 (stereo not shown) [II-224]
0.033 µM | COc1ccccc1C1c2c(C(C)(C)C)n[nH]c2C(=O)N1c1ccc(SC)cc1 (stereo not shown) [II-201]
0.019 µM | COc1ccccc1C1c2c(C(C)(C)C)n[nH]c2C(=O)N1c1ccc(-c2csc(C)c2)cc1 (stereo not shown) [II-274]
